Reference: patent US20250360235A1, “RADI[…] AND METHOD FOR RADIOLABELLING” (Telix Innovations SA, priority 2024, published 2025)

Experiment: Radiochemical purity by iTLC over time after radiolabelling
Format: physicochemical
Protocol: Table 1 to Table 5 show the results of various radiolabelling experiments on radiochemical purity and the chelation yield. The radiolabelling experiments in the tables are carried out as described in: • Example 1 for when the gallium-68 source is GE Liquid target generator and EZAG GalliaPharm generator; • Example 2 for when the gallium-68 source is IRE Galli Eo generator; • Example 3 for when the gallium-68 source is GE solid target generator;
However, the experiments were carried out with the amount of ascorbic acid as indicated in the Tables 1 to 5, and the activity as indicated in the Tables 1 to 5. Radiochemical purities were measured at various times (T0, T1, T4, T6) after the radiolabelled experiments have been conducted.
The kits of Example 1, Example 2 or Example 3, with amounts of ascorbic acid as set out in Table 7 were used in the experiments for the ascorbic acid bracketing matrix. Three strengths of [^68Ga]Ga-PSMA-11 will be tested, i.e. 50 mCi/ml, 7 mCi/ml and 1 mCi/ml. Radiochemical purity was determined at different time points (TO, T1, T4 or T6), as set out in Table 7.

[1] = 25 mg ascorbic acid, 46.0-46.1 mCi, 4.38-4.39 mCi/mL, EZAG GalliaPharm, average of 2, T4 (4 h)
[2] = 25 mg ascorbic acid, 46.0-46.1 mCi, 4.38-4.39 mCi/mL, EZAG GalliaPharm, n=2, T0
[3] = 25 mg ascorbic acid, 46.0-46.1 mCi, 4.38-4.39 mCi/mL, EZAG GalliaPharm, n=2, T4 (4 h)
[4] = bracketing ~1 mCi/mL, 18.75 mg ascorbic acid, 8.9-11.5 mCi, 0.85-1.09 mCi/mL, IRE Galli Eo, average of 2, T0
[5] = bracketing ~1 mCi/mL, 18.75 mg ascorbic acid, 8.9-11.5 mCi, 0.85-1.09 mCi/mL, IRE Galli Eo, average of 2, T1 (1 h)
[6] = bracketing ~1 mCi/mL, 25 mg ascorbic acid, 8.8-12.7 mCi, 0.84-1.21 mCi/mL, 2 × IRE Galli Eo, average of 2, T0
[7] = bracketing ~1 mCi/mL, 25 mg ascorbic acid, 8.8-12.7 mCi, 0.84-1.21 mCi/mL, 2 × IRE Galli Eo, average of 2, T1 (1 h)
[8] = bracketing ~1 mCi/mL, 31.25 mg ascorbic acid, 15.2-26.9 mCi, 1.44-2.54 mCi/mL, EZAG GalliaPharm, average of 2, T0
[9] = bracketing ~1 mCi/mL, 31.25 mg ascorbic acid, 15.2-26.9 mCi, 1.44-2.54 mCi/mL, EZAG GalliaPharm, average of 2, T1 (1 h)
[10] = bracketing ~7 mCi/mL, 18.75 mg ascorbic acid, 51.0-58.0 mCi, 5.55-6.5 mCi/mL, IRE Galli Eo, average of 2, T0
[11] = bracketing ~7 mCi/mL, 18.75 mg ascorbic acid, 51.0-58.0 mCi, 5.55-6.5 mCi/mL, IRE Galli Eo, average of 2, T4 (4 h)
[12] = bracketing ~7 mCi/mL, 25 mg ascorbic acid, 51.6-74.4 mCi, 4.56-6.92 mCi/mL, 3 × GE Liquid Target, 3 × IRE Galli Eo, 3 × EZAG GalliaPharm, average of 9, T0
[13] = bracketing ~7 mCi/mL, 25 mg ascorbic acid, 51.6-74.4 mCi, 4.56-6.92 mCi/mL, 3 × GE Liquid Target, 3 × IRE Galli Eo, 3 × EZAG GalliaPharm, average of 9, T4 (4 h)
[14] = bracketing ~7 mCi/mL, 31.25 mg ascorbic acid, 61.5-62.0 mCi, 5.85-5.88 mCi/mL, EZAG GalliaPharm, average of 2, T0
[15] = bracketing ~7 mCi/mL, 31.25 mg ascorbic acid, 61.5-62.0 mCi, 5.85-5.88 mCi/mL, EZAG GalliaPharm, average of 2, T4 (4 h)
[16] = bracketing ~50 mCi/mL, 20 mg ascorbic acid, 514-544 mCi, 48.3-51.9 mCi/mL, GE Solid Target, average of 2, T0
[17] = bracketing ~50 mCi/mL, 20 mg ascorbic acid, 514-544 mCi, 48.3-51.9 mCi/mL, GE Solid Target, average of 2, T6 (6 h)
[18] = bracketing ~50 mCi/mL, 25 mg ascorbic acid, 537-551 mCi, 50.2-51.6 mCi/mL, GE Solid Target, average of 3, T0
[19] = bracketing ~50 mCi/mL, 25 mg ascorbic acid, 537-551 mCi, 50.2-51.6 mCi/mL, GE Solid Target, average of 3, T6 (6 h)
[20] = bracketing ~50 mCi/mL, 31.25 mg ascorbic acid, 500-544 mCi, 48.1-51.7 mCi/mL, GE Solid Target, average of 2, T0

For `O=C([O-])CN(CCN(CC(=O)[O-])Cc1cc(CCC(=O)NCCCCCC(=O)NCCCC[C@H](NC(=O)N[C@@H](CCC(=O)O)C(=O)O)C(=O)O)ccc1[O-])Cc1cc(CCC(=O)O)ccc1[O-].[68Ga+3].[OH3+]` [[^68Ga]PSMA-11, gallium-68 radiolabelled Glu-urea-Lys-HBED-CC (gozetotide or PSMA-11)], the “Radiochemical Purity (iTLC) Free and Colloidal Ga-68 (%)” value [1] was 0%, the “Radiochemical Purity (iTLC) Ga-68 PSMA-11 (%)” value [1] was 100% and the “Radiochemical Purity (iTLC) Free and Colloidal Ga-68 (%)” value [2] was “C (C = all results conform to specifications)”. For the same compound, the “Radiochemical Purity (iTLC) Ga-68 PSMA-11 (%)” value [2] was “C (C = all results conform to specifications)”, the “Radiochemical Purity (iTLC) Free and Colloidal Ga-68 (%)” value [3] was “C (C = all results conform to specifications)” and the “Radiochemical Purity (iTLC) Ga-68 PSMA-11 (%)” value [3] was “C (C = all results conform to specifications)”. For the same compound, the “Radiochemical Purity (iTLC) Free and Colloidal Ga-68 (%)” value [4] was 0%, the “Radiochemical Purity (iTLC) Ga-68 PSMA-11 (%)” value [4] was 100% and the “Radiochemical Purity (iTLC) Free and Colloidal Ga-68 (%)” value [5] was 0%. For the same compound, the “Radiochemical Purity (iTLC) Ga-68 PSMA-11 (%)” value [5] was 100%, the “Radiochemical Purity (iTLC) Free and Colloidal Ga-68 (%)” value [6] was 0% and the “Radiochemical Purity (iTLC) Ga-68 PSMA-11 (%)” value [6] was 100%. For the same compound, the “Radiochemical Purity (iTLC) Free and Colloidal Ga-68 (%)” value [7] was 0%, the “Radiochemical Purity (iTLC) Ga-68 PSMA-11 (%)” value [7] was 100% and the “Radiochemical Purity (iTLC) Free and Colloidal Ga-68 (%)” value [8] was 0%. The “Radiochemical Purity (iTLC) Ga-68 PSMA-11 (%)” value [8] was 100%, the “Radiochemical Purity (iTLC) Free and Colloidal Ga-68 (%)” value [9] was 0% and the “Radiochemical Purity (iTLC) Ga-68 PSMA-11 (%)” value [9] was 100%. The “Radiochemical Purity (iTLC) Free and Colloidal Ga-68 (%)” value [10] was 0%, the “Radiochemical Purity (iTLC) Ga-68 PSMA-11 (%)” value [10] was 100% and the “Radiochemical Purity (iTLC) Free and Colloidal Ga-68 (%)” value [11] was 0%. The “Radiochemical Purity (iTLC) Ga-68 PSMA-11 (%)” value [11] was 100%, the “Radiochemical Purity (iTLC) Free and Colloidal Ga-68 (%)” value [12] was 0% and the “Radiochemical Purity (iTLC) Ga-68 PSMA-11 (%)” value [12] was 100%. The “Radiochemical Purity (iTLC) Free and Colloidal Ga-68 (%)” value [13] was 1%, the “Radiochemical Purity (iTLC) Ga-68 PSMA-11 (%)” value [13] was 99% and the “Radiochemical Purity (iTLC) Free and Colloidal Ga-68 (%)” value [14] was 0%. The “Radiochemical Purity (iTLC) Ga-68 PSMA-11 (%)” value [14] was 100%, the “Radiochemical Purity (iTLC) Free and Colloidal Ga-68 (%)” value [15] was 0% and the “Radiochemical Purity (iTLC) Ga-68 PSMA-11 (%)” value [15] was 100%. For the same compound, the “Radiochemical Purity (iTLC) Free and Colloidal Ga-68 (%)” value [16] was 3%, the “Radiochemical Purity (iTLC) Ga-68 PSMA-11 (%)” value [16] was 97% and the “Radiochemical Purity (iTLC) Free and Colloidal Ga-68 (%)” value [17] was 2%. For the same compound, the “Radiochemical Purity (iTLC) Ga-68 PSMA-11 (%)” value [17] was 98%, the “Radiochemical Purity (iTLC) Free and Colloidal Ga-68 (%)” value [18] was 0% and the “Radiochemical Purity (iTLC) Ga-68 PSMA-11 (%)” value [18] was 100%. The “Radiochemical Purity (iTLC) Free and Colloidal Ga-68 (%)” value [19] was 1%, the “Radiochemical Purity (iTLC) Ga-68 PSMA-11 (%)” value [19] was 99% and the “Radiochemical Purity (iTLC) Free and Colloidal Ga-68 (%)” value [20] was 1%. For the same compound, the “Radiochemical Purity (iTLC) Ga-68 PSMA-11 (%)” value [20] was 99% and the “Radiochemical Purity (iTLC) Free and Colloidal Ga-68 (%)” value (bracketing ~50 mCi/mL, 31.25 mg ascorbic acid, 500-544 mCi, 48.1-51.7 mCi/mL, GE Solid Target, average of 2, T6 (6 h)) was 1%.
